Reference: BindingDB's records for doi:10.1021/co200147y (Bristol-Myers Squibb Research and Development, 2012)
Several values for one entry are separate records, joined by “and”; a condition that tells them apart may be missing. Equal values may be shown once.

Biological target: Cannabinoid receptor 1 (Homo sapiens, UniProt P21554)
Test: Inhibition Assay
Source text: Inhibition assay using hCB1.

Cannabinoid receptor 1, sequence (P21554 whole entry): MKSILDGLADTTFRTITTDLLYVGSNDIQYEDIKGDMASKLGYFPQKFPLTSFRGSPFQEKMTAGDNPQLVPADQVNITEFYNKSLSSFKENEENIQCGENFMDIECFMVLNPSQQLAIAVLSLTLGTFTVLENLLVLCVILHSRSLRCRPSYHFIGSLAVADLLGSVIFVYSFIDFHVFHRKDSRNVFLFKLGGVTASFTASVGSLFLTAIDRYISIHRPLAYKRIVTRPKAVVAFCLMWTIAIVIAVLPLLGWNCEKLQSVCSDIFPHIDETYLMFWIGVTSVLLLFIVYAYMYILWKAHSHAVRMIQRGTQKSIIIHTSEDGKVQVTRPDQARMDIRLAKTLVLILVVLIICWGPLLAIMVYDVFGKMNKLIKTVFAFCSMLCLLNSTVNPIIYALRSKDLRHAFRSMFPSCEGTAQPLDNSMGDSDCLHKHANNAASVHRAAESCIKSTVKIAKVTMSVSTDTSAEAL

Row | IC50 | Structure (SMILES)
1 | 200 nM | Cc1cccc(-n2ncc(C(=O)NCCCc3ccccc3)c2-c2ccc(-c3ccccc3)cc2)c1 [hCB1 Inhibitor, 2{1,1,7}]
2 | 2700 nM | CCCCNC(=O)c1cnn(-c2cccc(C)c2)c1-c1ccc(-c2ccccc2)cc1 [hCB1 Inhibitor, 2{6,1,7}]
3 | 270 nM and 190 nM | O=C(NCC1CC1)c1cnn(-c2cccc(Cl)c2)c1-c1ccc(-c2ccccc2)cc1 [hCB1 Inhibitor, 2{5,1,1}]

Further lines, the compound ahead of its results:

Row | Structure (SMILES) | IC50
4 | O=C(NCCCc1ccccc1)c1cnn(-c2cccc3ccccc23)c1-c1ccc(-c2ccccc2)cc1 [hCB1 Inhibitor, 2{1,1,3}] | 90 nM
5 | Cc1cccc(-n2ncc(C(=O)NCCCc3ccccc3)c2-c2ccc(-c3ccccc3)cc2)c1C [hCB1 Inhibitor, 2{1,1,8}] | 200 nM and 40 nM
6 | CCCCNC(=O)c1cnn(-c2ccccc2C)c1-c1ccc(-c2ccccc2)cc1 [hCB1 Inhibitor, 2{6,1,6}] | 2800 nM
7 | Cc1ccccc1-n1ncc(C(=O)NCC2CC2)c1-c1ccc(-c2ccccc2)cc1 [hCB1 Inhibitor, 2{5,1,6}] | 390 nM
8 | CCCCNC(=O)c1cnn(-c2cccc(Cl)c2)c1-c1ccc(-c2ccccc2)cc1 [hCB1 Inhibitor, 2{6,1,1}] | 500 nM and 350 nM
9 | Cc1ccccc1-n1ncc(C(=O)NCCCc2ccccc2)c1-c1ccc(-c2ccccc2)cc1 [hCB1 Inhibitor, 2{1,1,6}] | 200 nM
10 | O=C(NCCCc1ccccc1)c1cnn(-c2cccc(Cl)c2)c1-c1ccc(-c2ccccc2)cc1 [hCB1 Inhibitor, 2{1,1,1}] | 410 nM and 200 nM
11 | Cc1cccc(-n2ncc(C(=O)NCC3CC3)c2-c2ccc(-c3ccccc3)cc2)c1 [hCB1 Inhibitor, 2{5,1,7}] | 620 nM
